{"source": "ChEMBL document CHEMBL1154442", "about": "“The total synthesis of fukiic acid, an HIV-1 integrase inhibitor” (Eur J Med Chem, 2008)", "key": {"[1]": {"target": "T1, Human immunodeficiency virus type 1 integrase (Human immunodeficiency virus 1, UniProt Q7ZJM1)", "T1 sequence (Q7ZJM1 whole entry)": "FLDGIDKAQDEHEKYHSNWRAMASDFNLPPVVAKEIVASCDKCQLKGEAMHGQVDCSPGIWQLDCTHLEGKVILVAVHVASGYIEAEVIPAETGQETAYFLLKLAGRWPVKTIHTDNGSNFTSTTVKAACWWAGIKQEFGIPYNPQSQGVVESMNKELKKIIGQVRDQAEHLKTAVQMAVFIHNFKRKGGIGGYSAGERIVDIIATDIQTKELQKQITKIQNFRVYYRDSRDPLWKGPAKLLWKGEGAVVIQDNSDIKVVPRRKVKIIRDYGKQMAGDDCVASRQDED", "assay": "Inhibition of HIV1 integrase using U5A/U5B double-stranded DNA as substrate by ELISA in presence of BSA"}, "[2]": {"assay": "Cytotoxicity against human MT4 cells by MTT assay", "format": "cell-based"}, "[3]": {"test_system": "Human immunodeficiency virus 1", "assay": "Antiviral activity against HIV1 3B infected in human MT4 cells assessed as inhibition of virus-induced cytopathic effect by MTT assay", "format": "functional, organism-based", "conditions": "Human immunodeficiency virus 1, 3B"}, "[4]": {"target": "T1, Human immunodeficiency virus type 1 integrase", "assay": "Inhibition of HIV1 integrase using U5A/U5B double-stranded DNA as substrate by ELISA"}}, "data": [{"smiles": "O=C(O)C(O)C(O)(Cc1ccc(O)c(O)c1)C(=O)O", "note": "(racemic)", "values": [{"measurement": "IC50", "setting": "[1]", "result": 17, "unit": "µM"}, {"measurement": "CC50", "setting": "[2]", "result": 22, "unit": "µM"}, {"measurement": "EC50", "setting": "[3]", "result": "> 22", "unit": "µM"}, {"measurement": "IC50", "setting": "[4]", "result": 0.25, "unit": "µM"}]}]}
